Results published in ChEMBL document CHEMBL1131439, “Prediction of binding affinities for TIBO inhibitors of HIV-1 reverse transcriptase using Monte Carlo simulations in a linear response method” (J Med Chem, 1998).

Target: Human immunodeficiency virus type 1 reverse transcriptase (Human immunodeficiency virus 1, UniProt Q72547)
Assay: Inhibition of HIV-1 reverse transcriptase.

| Structure (SMILES) | IC50 |
| --- | --- |
| CC(C)=CCN1Cc2cccc3nc(O)n(c23)C[C@@H]1C | 3160 nM |
| COc1ccc2[nH]c(=S)n3c2c1CN(CC=C(C)C)[C@@H](C)C3 | 33.9 nM |
| CC(C)=CCN1Cc2cccc3[nH]c(=S)n(c23)C[C@@H]1C | 44 nM |
| CC(C)=CCN1Cc2c(C)ccc3[nH]c(=O)n(c23)C[C@@H]1C | 989 nM |
| CC(C)=CCN1Cc2c(C#N)ccc3[nH]c(=S)n(c23)C[C@@H]1C | 56.3 nM |
| C#Cc1ccc2[nH]c(=S)n3c2c1CN(CC=C(C)C)[C@@H](C)C3 | 29.5 nM |
| CC(C)=CCN1Cc2c(C)ccc3[nH]c(=S)n(c23)C[C@@H]1C | 13.6 nM |
| CC(C)=CCN1Cc2c(Cl)ccc3[nH]c(=S)n(c23)C[C@@H]1C [TIVIRAPINE] | 4.3 nM |

Continued by falling IC50, values first:

| IC50 | Structure (SMILES) |
| --- | --- |
| 1140 nM | CC(C)=CCN1Cc2c(C#N)ccc3[nH]c(=O)n(c23)C[C@@H]1C |
| 437 nM | C#Cc1ccc2[nH]c(=O)n3c2c1CN(CC=C(C)C)[C@@H](C)C3 |
| 34 nM | CC(C)=CCN1Cc2cc(Cl)cc3[nH]c(=S)n(c23)C[C@@H]1C |
| 5.8 nM | CC(C)=CCN1Cc2c(F)ccc3[nH]c(=S)n(c23)C[C@@H]1C |
